According to patent US20130261130A1, “NEUROTRYPSIN INHIBITORS” (priority 2010, published 2013):

Molecular target: T1, human neurotrypsin (Homo sapiens, UniProt P56730)
T1 sequence (P56730 21-875): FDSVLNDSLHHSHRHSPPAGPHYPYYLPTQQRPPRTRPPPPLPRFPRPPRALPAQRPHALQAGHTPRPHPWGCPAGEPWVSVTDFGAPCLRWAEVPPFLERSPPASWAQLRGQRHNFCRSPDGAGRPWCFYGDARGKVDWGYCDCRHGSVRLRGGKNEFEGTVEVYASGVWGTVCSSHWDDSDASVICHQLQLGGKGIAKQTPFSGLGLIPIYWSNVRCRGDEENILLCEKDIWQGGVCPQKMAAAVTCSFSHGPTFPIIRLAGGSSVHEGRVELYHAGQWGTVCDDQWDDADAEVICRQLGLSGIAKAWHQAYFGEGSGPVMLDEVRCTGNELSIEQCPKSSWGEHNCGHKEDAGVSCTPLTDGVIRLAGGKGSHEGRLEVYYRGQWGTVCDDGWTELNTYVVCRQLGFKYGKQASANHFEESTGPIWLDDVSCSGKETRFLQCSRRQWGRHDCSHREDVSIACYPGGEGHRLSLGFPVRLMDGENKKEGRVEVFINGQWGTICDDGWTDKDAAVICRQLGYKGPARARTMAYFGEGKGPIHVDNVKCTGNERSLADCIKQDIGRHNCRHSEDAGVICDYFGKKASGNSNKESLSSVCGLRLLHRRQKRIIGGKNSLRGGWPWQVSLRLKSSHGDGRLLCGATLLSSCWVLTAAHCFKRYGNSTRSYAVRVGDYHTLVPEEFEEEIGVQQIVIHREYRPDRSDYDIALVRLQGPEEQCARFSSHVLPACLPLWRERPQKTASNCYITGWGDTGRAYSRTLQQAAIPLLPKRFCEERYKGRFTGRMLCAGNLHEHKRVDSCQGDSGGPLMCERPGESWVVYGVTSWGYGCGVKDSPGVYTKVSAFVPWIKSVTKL
Test: Determination of IC50 for human neurotrypsin
Assay type: biochemical
Conditions: human neurotrypsin; method of WO 2006/1103261; read-out: Neurotrypsin IC50
Description: Assessment of the potency of compounds of examples 1-311 in inhibiting the enzymatic activity of human neurotrypsin was performed according to the method described in patent application WO 2006/1103261

SMILES | IC50
O=C(Nc1ccc(Cc2ccccc2)cc1)c1ccc(C(=O)O)c(NC(=O)c2sc3ccccc3c2Cl)c1 [Example 67] | 10.7 µM
O=C(NCc1c(F)cccc1F)c1ccc(NC(=O)c2cc3ccc(Cl)cc3s2)c(C(=O)O)c1 [Example 165, 2-(6-Chlorobenzo[b]-thiophene-2-carboxamido)-5-(2,6-difluorobenzyl-carbamoyl)benzoic acid] | 8.9 µM
CC(C)(C)c1ccc(NC(=O)c2ccc(C(=O)O)c(NC(=O)c3sc4ccccc4c3Cl)c2)cc1 [Example 69] | 3.1 µM
O=C(Nc1ccc(Oc2ccccc2)cc1)c1ccc(C(=O)O)c(NC(=O)c2sc3ccccc3c2Cl)c1 [Example 64] | 23.3 µM
O=C(Nc1ccc(C(=O)N2CCC(Oc3ccccc3)CC2)cc1C(=O)O)c1ccc(-c2ccc(Cl)cc2)s1 [Example 162, 2-(5-(4-Chlorophenyl)-thiophene-2-carboxamido)-5-(4-phenoxypiperidine-1-carbonyl)benzoic acid] | 4.5 µM
O=C(Nc1ccc(C(=O)O)c(NC(=O)c2sc3ccccc3c2Cl)c1)c1ccc(Cl)cc1 [Example 273] | 7.6 µM
O=C(O)c1ccc(-c2cn(Cc3ccc(Cl)s3)nn2)cc1NC(=O)c1sc2ccccc2c1Cl [Example 262] | 7 µM
CC(C)CNC(=O)c1ccc(NC(=O)c2ccc(-c3nc4cc(Cl)c(Cl)cc4[nH]3)cc2)c(C(=O)O)c1 [Example 130] | 7.6 µM
O=C(O)c1ccc(-c2cn(Cc3ccccc3)nn2)cc1NC(=O)c1sc2ccccc2c1Cl [Example 258] | 9.4 µM
O=C(Nc1ccc(Oc2ccccc2)c(Cl)c1)c1ccc(C(=O)O)c(NC(=O)c2sc3ccccc3c2Cl)c1 [Example 73] | 4.4 µM
O=C(Nc1ccccn1)c1ccc(C(=O)O)c(NC(=O)c2sc3ccccc3c2Cl)c1 [Example 149, 2-(3-Chloro-benzo[b]-thiophene-2-carboxamido)-4-(pyridin-2-ylcarbamoyl)-benzoic acid] | 16.5 µM
O=C(Nc1ccccc1F)c1ccc(NC(=O)c2[nH]c3ccc(Cl)cc3c2-c2ccccc2)c(C(=O)O)c1 [Example 139] | 7.5 µM
O=C(O)c1cc(C(=O)N2CCC(c3ccc(Cl)cc3)C2)ccc1NC(=O)c1sc2ccccc2c1Cl (stereo not shown) [Example 108] | 3.9 µM
O=C(Nc1ccc(Cl)cc1)c1ccc(C(=O)O)c(NC(=O)c2sc3cc(Cl)ccc3c2Cl)c1 [Example 18, 4-(4-Chlorophenyl-carbamoyl)-2-(3,6-dichloro-benzo[b]thiophene-2-carboxamido)benzoic acid] | 8.3 µM
O=C(O)c1ccc(C(=O)N2CCCc3ccccc32)cc1NC(=O)c1sc2ccccc2c1Cl [Example 97] | 10.3 µM
O=C(Nc1ccc(CCc2ccccc2)cc1)c1ccc(C(=O)O)c(NC(=O)c2sc3ccccc3c2Cl)c1 [Example 63, 2-(3-Chlorobenzo[b]-thiophene-2-carboxamido)-4-(4-phenethylphenyl-carbamoyl)benzoic acid] | 130 µM
O=C(Nc1ncc(Cl)s1)c1ccc(C(=O)O)c(NC(=O)c2ccc(-c3ccc(F)cc3)s2)c1 [Example 27, 4-(5-Chlorothiazol-2-yl-carbamoyl)-2-(5-(4-fluorophenyl)thiophene-2-carboxamido)benzoic acid] | 5 µM
O=C(Nc1ncc(Cl)s1)c1ccc(C(=O)O)c(NC(=O)c2ccc(-c3ccccc3)s2)c1 [Example 62] | 7.5 µM
O=C(Nc1ncc(Cl)s1)c1ccc(C(=O)O)c(NC(=O)c2sc3ccccc3c2Cl)c1 [Example 59] | 9 µM
O=C(Nc1ccc(Cl)cc1)c1ccc(C(=O)O)c(NC(=O)c2ccc(-c3ccccc3)s2)c1 [Example 9, 4-(4-Chlorophenyl-carbamoyl)-2-(5-phenyl-thiophene-2-carboxamido)-benzoic acid] | 25.7 µM

SMILES | IC50
O=C(Nc1cc(NC(=O)c2sc3ccccc3c2Cl)ccc1C(=O)O)c1ccc(Cl)cc1 [Example 277] | 3.5 µM
O=C(O)c1ccc(NC2CCCc3ccccc32)cc1NC(=O)c1sc2ccccc2c1Cl (stereo not shown) [Example 291] | 4 µM
O=C(Nc1ccc(C(=O)N2CCCCC2)cc1C(=O)O)c1ccc(-c2nc3cc(Cl)c(Cl)cc3[nH]2)cc1 [Example 124] | 3.9 µM
O=C(O)c1ccc(NS(=O)(=O)c2ccc(Cl)cc2)cc1NC(=O)c1sc2ccccc2c1Cl [Example 278] | 19.4 µM
N#Cc1ccc(-c2ccc(C(=O)O)c(NC(=O)c3sc4ccccc4c3Cl)c2)cc1 [Example 255] | 3.1 µM
O=C(O)c1cc(-c2cn(-c3ccc(Cl)cc3)nn2)ccc1NC(=O)c1sc2ccccc2c1Cl [Example 263] | 4 µM
O=C(O)c1ccc(N2CC(c3ccc(Cl)cc3)CCC2=O)cc1NC(=O)c1sc2ccccc2c1Cl (stereo not shown) [Example 286] | 10.4 µM
O=C(Nc1ccccc1F)c1ccc(NC(=O)c2ccc(-c3nc4cc(Cl)c(Cl)cc4[nH]3)cc2)c(C(=O)O)c1 [Example 48, 2-(4-(5,6-Dichloro-1H-benzo[d]imidazol-2-yl)-benzamido)-5-(2-fluoro-phenylcarbamoyl)benzoic acid] | 3.4 µM
O=C(Nc1ccc(C(=O)O)c(NC(=O)c2sc3ccccc3c2Cl)c1)c1ccc(Cl)s1 [Example 274] | 6.6 µM
O=C(Nc1ccc(C(=O)N2CCC(Cc3ccccc3)CC2)cc1C(=O)O)c1ccc(-c2ccc(Cl)cc2)s1 [Example 161, 5-(4-Benzylpiperidine-1-carbonyl)-2-(5-(4-chloro-phenyl)thiophene-2-carboxamido)benzoic acid] | 3 µM
O=C(Nc1ccccc1)c1ccc(NC(=O)c2ccc(-c3nc4cc(Cl)c(Cl)cc4[nH]3)cc2)c(C(=O)O)c1 [Example 138] | 6.6 µM
O=C(O)CN(C(=O)c1ccc(C(=O)O)c(NC(=O)c2sc3ccccc3c2Cl)c1)c1ccc(Cl)cc1 [Example 74] | 26.1 µM
O=C(Nc1cc(N2CC(c3ccc(Cl)cc3)CC2=O)ccc1C(=O)O)c1ccc(-c2ccc(Cl)cc2)s1 (stereo not shown) [Example 283] | 3.4 µM
O=C(Nc1ccc(Cl)cc1)c1ccc(NC(=O)c2ccc(-c3nc4cc(Cl)ccc4[nH]3)cc2)c(C(=O)O)c1 [Example 37, 2-(4-(5-Chloro-1H-benzo[d]-imidazol-2-yl)benzamido)-5-(4-chlorophenylcarbamoyl)-benzoic acid] | 1.6 µM
O=C(O)c1ccc(C(=O)Nc2ccc(Cl)cc2)c(NC(=O)c2ccc(-c3ccccc3)s2)c1 [Example 25, 4-(4-Chlorophenyl-carbamoyl)-3-(5-phenyl-thiophene-2-carboxamido)-benzoic acid] | > 150 µM
O=C(Nc1ccc(C(=O)N2CCC(Cc3ccccc3)CC2)cc1C(=O)O)c1cc2ccc(Cl)cc2s1 [Example 158, 5-(4-Benzylpiperidine-1-carbonyl)-2-(6-chloro-benzo[b]thiophene-2-carboxamido)benzoic acid] | 3.8 µM
O=C(O)c1ccc(C(=O)N2CCC(Oc3ccccc3)CC2)cc1NC(=O)c1sc2ccccc2c1Cl [Example 28, 2-(3-Chlorobenzo[b]-thiophene-2-carboxamido)-4-(4-phenoxypiperidine-1-carbonyl)benzoic acid] | 11.3 µM
O=C(O)COc1cc(C(=O)O)c(NC(=O)c2sc3ccccc3c2Cl)cc1C(=O)Nc1ccc(Cl)cc1 [Example 304] | 2.5 µM
O=C(NC1Cc2ccccc2C1)c1ccc(NC(=O)c2sc3ccccc3c2Cl)c(C(=O)O)c1 [Example 159, 2-(3-Chlorobenzo[b]-thiophene-2-carboxamido)-5-(indan-2-ylcarbamoyl)benzoic acid] | 6.5 µM
O=C(O)c1cc(NC(=O)c2sc3ccccc3c2Cl)ccc1C(=O)Nc1ccc(Cl)cc1 [Example 271] | 14.2 µM
